Measured values taken from US10364245B2 (CHIESI FARMACEUTICI S.p.A., priority 2017, dated 2019).
Counter-ions that a name gives are not always drawn.

What was measured:
[1] = test system: Peripheral Blood Mononuclear Cells (PBMCs), TNFα release; assay: LPS-stimulated PBMC TNFα release assay; type: cell-based; conditions: human PBMC, LPS (10 ng/ml), 18 h, compound 1 h before LPS; read-out: LPS-stimulated PBMC TNFα release inhibition
How it was run: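 TNFα in cell-free supernatant, read on MSD plates, gave % inhibition curves and IC50 (≥3 separate experiments). Healthy-donor PBMCs had 1 h compound exposure at 37 °C in 1% FBS medium, then 18 h stimulation with 10 ng/ml LPS, after a 3 h serum-free rest.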

p38 alpha = target: T1, p38 alpha (Homo sapiens, UniProt Q16539); assay: P38 alpha enzyme inhibition assay (Alphascreen kinase activity assay); type: biochemical; conditions: 100 pM p38 alpha, 2 hours preincubation at 25° C., 250 μM ATP, ATF-2 fusion protein; read-out: p38α inhibition
T1 construct: purchased Invitrogen PV3304
How it was run: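 Phosphorylation of ATF-2 fusion protein (0.3 μg/ml) read by AlphaScreen with anti-phospho-ATF2 antibody after 1 h kinase reaction at 25 °C, initiated by 250 μM ATP. Compounds first incubated 2 h at 25 °C with 100 pM p38 alpha in pH 7.5 HEPES buffer, 1% DMSO. IC50 derived from concentration-response data.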

T1 sequence (Q16539 whole entry, the tested form may be a part): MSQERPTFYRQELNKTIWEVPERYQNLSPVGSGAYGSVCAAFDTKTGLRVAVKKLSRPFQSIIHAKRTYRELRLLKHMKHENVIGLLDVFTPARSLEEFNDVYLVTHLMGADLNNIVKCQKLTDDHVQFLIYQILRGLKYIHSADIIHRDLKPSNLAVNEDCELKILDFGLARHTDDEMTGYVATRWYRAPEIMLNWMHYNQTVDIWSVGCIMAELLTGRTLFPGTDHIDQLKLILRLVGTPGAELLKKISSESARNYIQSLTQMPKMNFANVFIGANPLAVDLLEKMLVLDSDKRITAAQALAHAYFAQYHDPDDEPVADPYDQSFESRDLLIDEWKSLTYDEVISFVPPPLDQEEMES

COCC(C)(C)c1nnc2ccc(O[C@@H]3CC[C@H](NC(=O)Nc4cc(C(C)(C)C)nc(C(=O)NCC5(N(C)C)CC5)n4)c4ccccc43)cn12 [Example 149, 4-(tert-butyl)-N-((1-(dimethylamino)cyclopropyl)methyl)-6-(3-((1S,4R)-4-((3-(l-methoxy-2-methylpropan-2-yl)-[1,2,4]triazolo[4,3-a]pyridin-6-yl)oxy)-1,2,3,4-tetrahydronaphthalen-1-yl)ureido)pyrimidine-2-carboxamide]
IC50 [1]: 1 to 5 nM
IC50 (p38 alpha): < 1 nM

CN1CCN(C(C)(C)CNC(=O)c2nc(NC(=O)N[C@H]3CC[C@@H](Oc4ccc5nnc(C(C)(C)C)n5c4)c4ccccc43)cc(C(C)(C)C)n2)CC1 [Example 151, 4-(tert-butyl)-6-(3-((1S,4R)-4-((3-(tert-butyl)-[1,2,4]triazolo[4,3-a]pyridin-6-yl)oxy)-1,2,3,4-tetrahydronaphthalen-1-yl)ureido)-N-(2-methyl-2-(4-methylpiperazin-1-yl)propyl)pyrimidine-2-carboxamide]
IC50 [1]: > 5 nM
IC50 (p38 alpha): < 1 nM

CCN(C)C(C)(C)CNC(=O)c1nc(NC(=O)N[C@H]2CC[C@@H](Oc3ccc4nnc(C(C)(C)COC)n4c3)c3ccccc32)cc(C(C)(C)C)n1 [Example 152, 4-(tert-butyl)-N-(2-(ethyl(methyl)amino)-2-methylpropyl)-6-(3-((1S,4R)-4-((3-(1-methoxy-2-methylpropan-2-yl)-[1,2,4]triazolo[4,3-a]pyridin-6-yl)oxy)-1,2,3,4-tetrahydronaphthalen-1-yl)ureido)pyrimidine-2-carboxamide]
IC50 [1]: > 5 nM
IC50 (p38 alpha): < 1 nM

COCC(C)(C)c1nnc2ccc(O[C@@H]3CC[C@H](NC(=O)Nc4cc(C(C)(C)C)nc(C(=O)NCC5(N(C)C)CCCC5)n4)c4ccccc43)cn12 [Example 154, 4-(tert-butyl)-N-((1-(dimethylamino)cyclopentyl)methyl)-6-(3-((1S,4R)-4-((3-(1-methoxy-2-methylpropan-2-yl)-[1,2,4]triazolo[4,3-a]pyridin-6-yl)oxy)-1,2,3,4-tetrahydronaphthalen-1-yl)ureido)pyrimidine-2-carboxamide]
IC50 [1]: > 5 nM
IC50 (p38 alpha): < 1 nM

COCC(C)(C)c1nnc2ccc(O[C@@H]3CC[C@H](NC(=O)Nc4cc(C(C)(C)C)nc(C(=O)NCC(C)(C)N5CCN(C)CC5)n4)c4ccccc43)cn12 [Example 155, 4-(tert-butyl)-6-(3-((1S,4R)-4-((3-(1-methoxy-2-methylpropan-2-yl)-[1,2,4]triazolo[4,3-a]pyridin-6-yl)oxy)-1,2,3,4-tetrahydronaphthalen-1-yl)ureido)-N-(2-methyl-2-(4-methylpiperazin-1-yl)propyl)pyrimidine-2-carboxamide]
IC50 [1]: > 5 nM
IC50 (p38 alpha): < 1 nM

COCC(C)(C)c1nnc2ccc(O[C@@H]3CC[C@H](NC(=O)Nc4cc(C(C)(C)C)nc(C(=O)NCC5(N(C)C)CCC5)n4)c4ccccc43)cn12 [Example 158, 4-(tert-Butyl)-N-((1-(dimethylamino)-cyclobutyl)methyl)-6-(3-((1S,4R)-4-((3-(1-methoxy-2-methylpropan-2-yl)-[1,2,4]triazolo[4,3-a]pyridin-6-yl)oxy)-1,2,3,4-tetrahydronaphthalen-1-yl)ureido)pyrimidine-2-carboxamide formate salt]
IC50 [1]: 1 to 5 nM
IC50 (p38 alpha): < 1 nM

CN(C)C1(CNC(=O)c2nc(NC(=O)N[C@H]3CC[C@@H](Oc4ccc5nnc(C(C)(C)C)n5c4)c4ccccc43)cc(C(C)(C)C)n2)CC1 [Example 159, 4-(tert-butyl)-6-(3-((1S,4R)-4-((3-(tert-butyl)-[1,2,4]triazolo[4,3-a]pyridin-6-yl)oxy)-1,2,3,4-tetrahydronaphthalen-1-yl)ureido)-N-((1-(dimethylamino)-cyclopropyl)methyl)-pyrimidine-2-carboxamide]
IC50 [1]: > 5 nM
IC50 (p38 alpha): 1 to 10 nM

COCC(C)(C)c1nnc2ccc(O[C@@H]3CC[C@H](NC(=O)Nc4cc(C(C)(C)C)nc(C(=O)NCCN5CC(OC)C5)n4)c4ccccc43)cn12 [Example 166, 4-(tert-butyl)-6-(3-((1S,4R)-4-((3-(1-methoxy-2-methylpropan-2-yl)-[1,2,4]triazolo[4,3-a]pyridin-6-yl)oxy)-1,2,3,4-tetrahydronaphthalen-1-yl)ureido)-N-(2-(3-methoxyazetidin-1-yl)ethyl)pyrimidine-2-]
IC50 [1]: > 5 nM
IC50 (p38 alpha): < 1 nM

CC[C@H](C)c1nnc2ccc(O[C@@H]3CC[C@H](NC(=O)Nc4cc(C(C)(C)C)nc(C(=O)NCCN5CC(OC)C5)n4)c4ccccc43)cn12 [Example 169, 4-(tert-butyl)-6-(3-((1S,4R)-4-((3-((S)-sec-butyl)-[1,2,4]triazolo[4,3-a]pyridin-6-yl)oxy)-1,2,3,4-tetrahydronaphthalen-1-yl)ureido)-N-(2-(3-methoxyazetidin-1-yl)ethyl)pyrimidine-2-carboxamide]
IC50 [1]: 1 to 5 nM
IC50 (p38 alpha): < 1 nM

COCC(C)(C)c1nnc2ccc(O[C@@H]3CC[C@H](NC(=O)Nc4cc(C(C)(C)C)nc(C(=O)NCC(C)(C)N5CC(OC)C5)n4)c4ccccc43)cn12 [Example 171, 4-(tert-butyl)-6-(3-((1S,4R)-4-((3-(1-methoxy-2-methylpropan-2-yl)-[1,2,4]triazolo[4,3-a]pyridin-6-yl)oxy)-1,2,3,4-tetrahydronaphthalen-1-yl)ureido)-N-(2-(3-methoxyazetidin-1-yl)-2-methylpropyl)pyrimidine-2-carboxamide]
IC50 [1]: 1 to 5 nM
IC50 (p38 alpha): 1 to 10 nM

CCC(CC)c1nnc2ccc(O[C@@H]3CC[C@H](NC(=O)Nc4cc(C(C)(C)C)nc(C(=O)NCC(C)(C)N5CCN(C)CC5)n4)c4ccccc43)cn12 [Example 173, 4-(tert-butyl)-N-(2-methyl-2-(4-methylpiperazin-1-yl)propyl)-6-(3-((1S,4R)-4-((3-(pentan-3-yl)-[1,2,4]triazolo[4,3-a]pyridin-6-yl)oxy)-1,2,3,4-tetrahydronaphthalen-1-yl)ureido)pyrimidine-2-carboxamide formate salt]
IC50 [1]: 1 to 5 nM
IC50 (p38 alpha): < 1 nM

CCC(CC)c1nnc2ccc(O[C@@H]3CC[C@H](NC(=O)Nc4cc(C(C)(C)C)nc(C(=O)NCC(C)(C)N5CC(OC)C5)n4)c4ccccc43)cn12 [Example 174, 4-(tert-butyl)-N-(2-(3-methoxyazetidin-1-yl)-2-methylpropyl)-6-(3-((1S,4R)-4-((3-(pentan-3-yl)-[1,2,4]triazolo[4,3-a]pyridin-6-yl)oxy)-1,2,3,4-tetrahydronaphthalen-1-yl)ureido)pyrimidine-2-carboxamide formate salt]
IC50 [1]: 1 to 5 nM
IC50 (p38 alpha): < 1 nM

CCC(CC)c1nnc2ccc(O[C@@H]3CC[C@H](NC(=O)Nc4cc(C(C)(C)C)nc(C(=O)NCC(C)(C)N(C)C)n4)c4ccccc43)cn12 [Example 175, 4-(tert-butyl)-N-(2-(dimethylamino)-2-methylpropyl)-6-(3-((1S,4R)-4-((3-(pentan-3-yl)-[1,2,4]triazolo[4,3-a]pyridin-6-yl)oxy)-1,2,3,4-tetrahydronaphthalen-1-yl)ureido)pyrimidine-2-carboxamide formate salt]
IC50 [1]: 1 to 5 nM
IC50 (p38 alpha): < 1 nM

CCC(CC)c1nnc2ccc(O[C@@H]3CC[C@H](NC(=O)Nc4cc(C(C)(C)C)nc(C(=O)NCC(C)(C)N(C)CC)n4)c4ccccc43)cn12 [Example 176, 4-(tert-butyl)-N-(2-(ethyl(methyl)amino)-2-methylpropyl)-6-(3-((1S,4R)-4-((3-(pentan-3-yl)-[1,2,4]triazolo[4,3-a]pyridin-6-yl)oxy)-1,2,3,4-tetrahydronaphthalen-1-yl)ureido)pyrimidine-2-carboxamide]
IC50 [1]: 1 to 5 nM
IC50 (p38 alpha): < 1 nM

COCCN(C)C(C)(C)CNC(=O)c1nc(NC(=O)N[C@H]2CC[C@@H](Oc3ccc4nnc(C(C)(C)COC)n4c3)c3ccccc32)cc(C(C)(C)C)n1 [Example 178, 4-(tert-butyl)-6-(3-((1S,4R)-4-((3-(1-methoxy-2-methylpropan-2-yl)-[1,2,4]triazolo[4,3-a]pyridin-6-yl)oxy)-1,2,3,4-tetrahydronaphthalen-1-yl)ureido)-N-(2-((2-methoxyethyl)(methyl)-amino)-2-methylpropyl)pyrimidine-2-carboxamide]
IC50 [1]: 1 to 5 nM
IC50 (p38 alpha): 1 to 10 nM

CN(CCO)CCNC(=O)c1nc(NC(=O)N[C@H]2CC[C@@H](Oc3ccc4nnc(C5(C)CCCC5)n4c3)c3ccccc32)cc(C(C)(C)C)n1 [Example 181, 4-(tert-butyl)-N-(2-((2-hydroxyethyl)(methyl)amino)ethyl)-6-(3-((1S,4R)-4-((3-(1-methylcyclopentyl)-[1,2,4]triazolo[4,3-a]pyridin-6-yl)oxy)-1,2,3,4-tetrahydronaphthalen-1-yl)ureido)pyrimidine-2-carboxamide]
IC50 [1]: 1 to 5 nM
IC50 (p38 alpha): < 1 nM

CC(C)(C)c1cc(NC(=O)N[C@H]2CC[C@@H](Oc3ccc4nnc(C5(C)CCCC5)n4c3)c3ccccc32)nc(C(=O)NCCN2CCCOCC2)n1 [Example 182, N-(2-(1,4-oxazepan-4-yl)ethyl)-4-(tert-butyl)-6-(3-((1S,4R)-4-((3-(1-methylcyclopentyl)-[1,2,4]triazolo[4,3-a]pyridin-6-yl)oxy)-1,2,3,4-tetrahydronaphthalen-1-yl)ureido)pyrimidine-2-carboxamide]
IC50 [1]: < 1 nM
IC50 (p38 alpha): < 1 nM
